Measurements: the NIST ThermoML archive (doi:10.1016/j.jct.2004.06.009)

Assay: molar heat capacity at constant pressure
Conditions: 101.33 kPa

CCC12CC3CC(CC(C3)C1)C2 [1-ethyladamantane]
Conditions | molar heat capacity at constant pressure [J/K/mol]
176.11 K, Crystal | 129.2
177.66 K, Crystal | 130.08
179.2 K, Crystal | 131.06
180.74 K, Crystal | 132.22
182.28 K, Crystal | 133.41
183.82 K, Crystal | 134.59
185.36 K, Crystal | 135.72
186.9 K, Crystal | 136.96
188.44 K, Crystal | 138.08
189.98 K, Crystal | 139.07
191.52 K, Crystal | 140.27
193.06 K, Crystal | 141.34
194.59 K, Crystal | 142.65
196.12 K, Crystal | 143.78
197.65 K, Crystal | 144.95
199.17 K, Crystal | 146.07
200.7 K, Crystal | 147.28
202.23 K, Crystal | 148.71
205.28 K, Crystal | 150.89
206.8 K, Crystal | 152.02
208.31 K, Crystal | 152.99
209.83 K, Crystal | 154.47
211.34 K, Crystal | 155.33
212.86 K, Crystal | 156.65
214.37 K, Crystal | 157.99
215.88 K, Crystal | 159.85
217.38 K, Crystal | 161.46
218.88 K, Crystal | 163.87
220.38 K, Crystal | 167.18
228.19 K, Liquid | 213.96
229.69 K, Liquid | 214.76
231.15 K, Liquid | 216.02
232.62 K, Liquid | 216.73
234.09 K, Liquid | 217.38
235.55 K, Liquid | 218.44
237.02 K, Liquid | 218.96
238.48 K, Liquid | 219.64
239.95 K, Liquid | 220.45
241.41 K, Liquid | 222.1
242.87 K, Liquid | 222.52
244.34 K, Liquid | 223.6
245.81 K, Liquid | 224.53
247.27 K, Liquid | 225.06
248.74 K, Liquid | 225.78
250.2 K, Liquid | 226.74
251.63 K, Liquid | 227.78
253.09 K, Liquid | 228.8
254.56 K, Liquid | 229.67
256.02 K, Liquid | 230.53
257.48 K, Liquid | 231.41
258.94 K, Liquid | 232.48
260.41 K, Liquid | 233.18
261.87 K, Liquid | 234.01
263.33 K, Liquid | 235.14
264.79 K, Liquid | 236.35
266.25 K, Liquid | 237.17
267.71 K, Liquid | 238.18
269.18 K, Liquid | 238.96
270.64 K, Liquid | 240.09
272.1 K, Liquid | 240.99
273.56 K, Liquid | 242.19
274.98 K, Liquid | 242.56
276.44 K, Liquid | 243.82
277.9 K, Liquid | 244.9
279.36 K, Liquid | 245.49
280.82 K, Liquid | 246.39
282.28 K, Liquid | 247.77
283.74 K, Liquid | 248.37
285.2 K, Liquid | 249.48
286.65 K, Liquid | 250.83
288.11 K, Liquid | 251.75
289.57 K, Liquid | 252.24
291.03 K, Liquid | 253.03
292.48 K, Liquid | 254.46
293.94 K, Liquid | 255.49
295.4 K, Liquid | 256.65
296.85 K, Liquid | 257.72
298.28 K, Liquid | 258.45
299.74 K, Liquid | 259.79
301.19 K, Liquid | 260.37
302.65 K, Liquid | 261.81
304.1 K, Liquid | 262.96
305.56 K, Liquid | 263.59
307.02 K, Liquid | 264.26
308.47 K, Liquid | 265.38
309.93 K, Liquid | 266.44
311.38 K, Liquid | 267.77
312.84 K, Liquid | 268.68
314.29 K, Liquid | 268.95
315.75 K, Liquid | 271
317.21 K, Liquid | 271.58
318.66 K, Liquid | 272.26
320.12 K, Liquid | 273.19
321.55 K, Liquid | 274.59
323 K, Liquid | 275.5
324.46 K, Liquid | 276.62
325.92 K, Liquid | 277.16
327.37 K, Liquid | 278.45
328.83 K, Liquid | 279.65
330.29 K, Liquid | 280.77
331.75 K, Liquid | 281.88
332.28 K, Liquid | 282.18
333.21 K, Liquid | 282.65
333.65 K, Liquid | 283.08
334.66 K, Liquid | 283.89
335.01 K, Liquid | 284.12
336.12 K, Liquid | 284.89
336.37 K, Liquid | 285.08
337.58 K, Liquid | 285.8
337.72 K, Liquid | 286.15
339.07 K, Liquid | 287.35
340.41 K, Liquid | 288.22
341.76 K, Liquid | 289.11
342.95 K, Liquid | 290.27
344.28 K, Liquid | 291.29
345.62 K, Liquid | 292.19
346.95 K, Liquid | 292.96
348.28 K, Liquid | 294.44
349.61 K, Liquid | 295.79
350.93 K, Liquid | 296.76
352.25 K, Liquid | 297.68
353.57 K, Liquid | 298.69
354.88 K, Liquid | 299.75
356.19 K, Liquid | 300.53
357.5 K, Liquid | 301.48
358.78 K, Liquid | 302.8
360.08 K, Liquid | 303.82
361.37 K, Liquid | 304.5
362.66 K, Liquid | 305.46
363.76 K, Liquid | 305.56
365.04 K, Liquid | 306.42
366.32 K, Liquid | 307.62
367.59 K, Liquid | 308.68
368.87 K, Liquid | 309.55
370.13 K, Liquid | 310.5
371.4 K, Liquid | 311.2
372.65 K, Liquid | 312.25
373.9 K, Liquid | 313.52
